Values of other authors in PubChem BioAssay AID1259410 (Chemical Carcinogenesis Research Information System (CCRIS), 2018).

Tested on: rodent tumor promotion studies, tumor incidence
Experiment: CCRIS tumor promotion studies

For `CCC1(c2ccccc2)C(=O)NC(=O)NC1=O`, the outcome (Carcinogen: 2-(ACETYLAMINO)FLUORINE, Doses [Carcinogen]: DIET, Doses [Promoter]: IN DIET, Route [Carcinogen]: ORAL, Route [Promoter]: ORAL, Species: RAT, Strain/Sex: MALE) is listed as “liver”, the outcome (Carcinogen: 3'-METHYL-4-DIMETHYLAMINOAZOBENZENE, Doses [Carcinogen]: DIET, Doses [Promoter]: IN DIET, Route [Carcinogen]: ORAL, Route [Promoter]: ORAL, Species: RAT, Strain/Sex: MALE) is listed as “liver” and the outcome (Carcinogen: 4-DIMETHYLAMINOAZOBENZENE, Doses [Carcinogen]: DIET, Doses [Promoter]: IN DIET, Route [Carcinogen]: ORAL, Route [Promoter]: ORAL, Species: RAT, Strain/Sex: MALE) is listed as “liver”. For the same compound, the outcome (Carcinogen: DIETHYLNITROSAMINE [55-18-5], Doses [Carcinogen]: 90 MG/KG BW ONCE, Doses [Promoter]: 90 MG/KG BW DAILY FOR UP TO 76 WK STARTING 2 WK AFTER CARCINOGEN TREATMENT (STUDY DURATION: 76 WK), Route [Carcinogen]: IP INJECTION, Route [Promoter]: DIET, Species: MOUSE, Strain/Sex: C3H/HE/MALE) was “liver: tumor incidence was 100% by 52 wk and 10 tumors/animal”, the outcome (Carcinogen: DIETHYLNITROSAMINE [55-18-5], Doses [Carcinogen]: 90 MG/KG BW ONCE, Doses [Promoter]: 90 MG/KG BW DAILY FOR UP TO 90 WK STARTING 2 WK AFTER CARCINOGEN TREATMENT (STUDY DURATION: 92 WK), Route [Carcinogen]: IP INJECTION, Route [Promoter]: DIET, Species: MOUSE, Strain/Sex: B6C3F1/MALE) was “liver: promoter increased liver tumor incidence considerably, 12 tumors/animal a” and the outcome (Carcinogen: DIETHYLNITROSAMINE [55-18-5], Doses [Carcinogen]: 90 MG/KG BW ONCE, Doses [Promoter]: 90 MG/KG BW DAILY FOR UP TO 90 WK STARTING 2 WK AFTER CARCINOGEN TREATMENT (STUDY DURATION: 92 WK), Route [Carcinogen]: IP INJECTION, Route [Promoter]: DIET, Species: MOUSE, Strain/Sex: C57BL/6J/MALE) was “liver: tumor; 5 tumors/animal at 76 wk; pb increased tumors somewhat at 40-92 wk”. For the same compound, the outcome (Carcinogen: DIETHYLNITROSAMINE, 55-18-5, Doses [Carcinogen]: 5 MG/KG IN SALINE ONCE ON DAY 15 OF AGE, Doses [Promoter]: 0, 500 MG/L FOR 24 WK BEGINNING AT 28 DAYS OF AGE (STUDY DURATION: 28 WK), Route [Carcinogen]: INTRAPERITONEAL, Route [Promoter]: ORAL, Species: MOUSE, Strain/Sex: C3H/MALE) was “liver: adenoma”, the outcome (Carcinogen: DIETHYLNITROSAMINE, 55-18-5, Doses [Carcinogen]: 10 MG/KG ONCE, Doses [Promoter]: 0, 500 PPM IN DIET FOR 140 D BEGINNING 30 D POST CARCINOGEN DOSE (STUDY DURATION: 450 D), Route [Carcinogen]: INTRAPERITONEAL, Route [Promoter]: ORAL, Species: RAT, Strain/Sex: SPRAGUE-DAWLEY/FEMALE) was “liver: adenoma or carcinoma” and the outcome (Carcinogen: DIETHYLNITROSAMINE, 55-18-5, Doses [Carcinogen]: 80 MG/KG BW ONCE, Doses [Promoter]: 0, 0.05% IN DIET FOR 39 WK BEGINNING 1 WK POST CARCINOGEN DOSE (STUDY DURATION: 40 WK), Route [Carcinogen]: INTRAPERITONEAL, Route [Promoter]: ORAL, Species: RAT, Strain/Sex: F344/MALE) was “liver: tumor”. For the same compound, the outcome (Carcinogen: DIETHYLNITROSAMINE, 55-18-5, Doses [Carcinogen]: 150 MG/KG ONCE, Doses [Promoter]: 0.05% IN DIET BEGINNING 2 WK POST CARCINOGEN DOSE AND CONTINUING FOR 54 WK (STUDY DURATION: 56 WK), Route [Carcinogen]: INTRAPERITONEAL, Route [Promoter]: ORAL, Species: RAT, Strain/Sex: F344/MALE) was “liver: hepatocellular carcinoma or neoplastic nodule”, the outcome (Carcinogen: DIETHYLNITROSAMINE, 55-18-5, Doses [Carcinogen]: 150 MG/KG ONCE, Doses [Promoter]: 0.05% IN DIET BEGINNING 2 WK POST CARCINOGEN DOSE FOR 11 WK FOLLOWED BY CONTROL DIET FOR DURATION OF STUDY (STUDY DURATI, Route [Carcinogen]: INTRAPERITONEAL, Route [Promoter]: ORAL, Species: RAT, Strain/Sex: F344/MALE) was “liver: hepatocellular carcinoma or neoplastic nodule” and the outcome (Carcinogen: DIETHYLNITROSAMINE, 55-18-5, Doses [Carcinogen]: 150 MG/KG ONCE, Doses [Promoter]: 0.05% IN DIET BEGINNING 11 WK POST CARCINOGEN DOSE AND CONTINUING FOR DURATION OF STUDY (STUDY DURATION: 56 WK), Route [Carcinogen]: INTRAPERITONEAL, Route [Promoter]: ORAL, Species: RAT, Strain/Sex: F344/MALE) was “liver: hepatocellular carcinoma or neoplastic nodule”. The outcome (Carcinogen: DIETHYLNITROSAMINE, Doses [Carcinogen]: SC, Doses [Promoter]: IN DIET, Route [Carcinogen]: SUBCUTANEOUS, Route [Promoter]: ORAL, Species: RAT, Strain/Sex: MALE) was “liver”, the outcome (Carcinogen: DIMETHYLNITROSAMINE, 62-75-9, Doses [Carcinogen]: 5 MG/KG IN SALINE ONCE ON DAY 15 OF AGE, Doses [Promoter]: 0, 500 MG/L FOR 24 WK BEGINNING AT 28 DAYS OF AGE (STUDY DURATION: 28 WK), Route [Carcinogen]: INTRAPERITONEAL, Route [Promoter]: ORAL, Species: MOUSE, Strain/Sex: B6C3F1/MALE) was “liver: adenoma” and the outcome (Carcinogen: DIMETHYLNITROSAMINE, 62-75-9, Doses [Carcinogen]: 5 MG/KG IN SALINE ONCE ON DAY 15 OF AGE, Doses [Promoter]: 0, 500 MG/L FOR 24 WK BEGINNING AT 28 DAYS OF AGE (STUDY DURATION: 28 WK), Route [Carcinogen]: INTRAPERITONEAL, Route [Promoter]: ORAL, Species: MOUSE, Strain/Sex: C3H/MALE) was “liver: adenoma”.
